# Read-outs that look alike come from different tables or passages of the source.
# Assays:
# endogenous membrane PLA2 = assay: Inhibition of liberation of arachidonic acid from isolated rat polymorphonuclears stimulated by ionophore; assay type: cell-based; conditions: Test on rat PMNs; ionophore stimulation
# Method: In a cell model involving endogenous membrane PLA2, the compounds of the invention also exerted an inhibiting effect on the liberation of arachidonic acid by their action on isolated rat polymorphonuclears (PLN), the membrane phospholipids of which had been labelled with tritiated arachidonic acid. The degree of activity of the compounds of the invention is assessed by measuring the radioactivity liberated after stimulation by ionophore […] according to the technique described by Sakson, Raz, Denny, Wyche and Needleman (Prostaglandins, 14, (1977), 853, sqq.).
# [1] = molecular target: porcine pancreatic phospholipase A2 (PLA2) (Sus scrofa, UniProt P00592); assay: Inhibition of liberation of tritiated oleic acid from Escherichia coli membranes by porcine pancreatic phospholipase A2; assay type: biochemical; conditions: Test on Escherichia coli membranes
# Description: The compounds of the present invention have an inhibiting activity on the liberation of tritiated oleic acid previously incorporated into Escherichia coli membranes under the effect of porcine pancreatic phospholipase A2 (PLA2) according to the technique described by Frason, Patriarca and Elsbach (J. Lipid. Res., 15, (1974), 380-388).
# mouse calvaria [2] = assay: Anti-bone resorption-1: inhibition of hyper-resorption in mouse calvaria (in vitro); assay type: cell-based; conditions: for inhibition at 10 µM / inhibition at 50 µM: hyper-resorption induced by 5×10^-8 M retinoic acid; for inhibition at 7.5 µM: 7,5 μM
# mouse calvaria [3] = assay: Formation of osteoid tissue: incorporation of tritiated proline into bone tissue of mouse calvaria; assay type: cell-based; conditions: read-out: Stimulation of formation
# Description: An effect promoting the formation of osteoid tissue (incorporation of tritiated proline from the medium into the bone tissue of mouse calvaria) has also been observed with some compounds: […]
# [4] = system: mice in which a state of hyper-resorption had been induced by a calcium-deficient diet; assay: Anti-bone resorption-2: in vivo urinary [3H] tetracycline excretion in mice with hyper-resorption induced by calcium-deficient diet; conditions: calcium-deficient diet (0.4%)
# Method: In vivo study according to the measurement method described by Konig, Muhlbauer and Fleisch ("Tumor necrosis factor and interleukine-1 stimulate bone resorption in vivo as measured by urinary [^3 H] tetracycline excretion from prelabeled mice", J. Bone Min. Res., 3, (1988), 621-627). A study was carried out on mice in which a state of hyper-resorption had been induced by a calcium-deficient diet (0.4%).
# Sequence of porcine pancreatic phospholipase A2 (PLA2) (P00592 23-146): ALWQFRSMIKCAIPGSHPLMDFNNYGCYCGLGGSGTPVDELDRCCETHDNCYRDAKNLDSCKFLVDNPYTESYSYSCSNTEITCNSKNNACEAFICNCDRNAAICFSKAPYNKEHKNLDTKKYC
SMILES,IC50 (endogenous membrane PLA2),IC50 [1],also measured
"Cc1cc2c(c(C(C)(C)C)c1)OCC(/C=C/C=C/C=C/C(=O)O)=C2 [Example 11, (2E,4E,6E)-7-(6-Methyl-8-tert.-butyl-2H-chromen-3-yl)hepta-2,4,6-trienoic acid]",5 µM,6 µM,
"CCOC(=O)/C=C(C)/C=C/C=C(\C)C1=Cc2cc(C)cc(C)c2OC1 [Example 35, Ethyl (2E,4E,6E)-7-(6,8-dimethyl-2H-chromen-3-yl)-3-methylocta-2,4,6-trienoate]",,5 µM,"inhibition at 10 µM (mouse calvaria [2]): 15%; inhibition at 50 µM (mouse calvaria [2]): 32%; inhibition at 7.5 µM (mouse calvaria [2]; parathormone (PTH) 500 ng/ml, read-out: Hyper-resorption with PTH): 12%; inhibition at 7.5 µM (mouse calvaria [2]; retinoic acid, read-out: Hyper-resorption with retinoic acid): 9%; activation at 10 µM (mouse calvaria [3]): 11%"
"CC(C)(C)c1cc2c(c(C(C)(C)C)c1)OCC(/C=C/C=C/C=C/C(=O)O)=C2 [Example 13, (2E,4E,6E)-7-(6,8-Ditert.-butyl-2H-chromen-3-yl)hepta-2,4,6-trienoic acid]",5 µM,3 µM,
"Cc1cc(Cl)cc2c1OC(C)(C)C(/C=C/C=C/C=C/C(=O)O)=C2 [Example 19, (2E,4E,6E)-7-(2,2,8-Trimethyl-6-chloro-2H-chromen-3-yl)hepta-2,4,6-trienoic acid]",50 µM,30 µM,
"Cc1cc(C)c2c(c1)C=C(/C=C/C=C/C=C/C(=O)O)C(C)(C)O2 [Example 18, (2E,4E,6E)-7-(2,2,6,8-Tetramethyl-2H-chromen-3-yl)hepta-2,4,6-trienoic acid]",30 µM,30 µM,
CCOC(=O)\C=C(C)/C=C/C=C(\C)C1=Cc2cc(-c3ccccc3)ccc2OC1 [Example 27],,7.5 µM,inhibition at 10 µM (mouse calvaria [2]): 11%
"Cc1cc(Cl)cc2c1OCC(/C=C/C=C/C=C/C(=O)O)=C2 [Example 15, (2E,4E,6E)-7-(6-Chloro-8-methyl-2H-chromen-3-yl)hepta-2,4,6-trienoic acid]",50 µM,10 µM,
"CC(C)(C)c1ccc2c(c1)C=C(/C=C/C=C/C=C/C(=O)O)CO2 [Example 6, (2E,4E,6E)-7-(6-Tert.-butyl-2H-chromen-3-yl) hepta-2,4,6-trienoic acid]",10 µM,9 µM,
"CC(/C=C/C=C(\C)C1=Cc2cc(-c3ccccc3)ccc2OC1)=C\C(=O)O [Example 26, (2E,4E,6E)-3-Methyl-7-(6-phenyl-2H-chromen-3-yl)octa-2,4,6-trienoic acid]",,5 µM,inhibition at 10 µM (mouse calvaria [2]): 11%; inhibition at 50 µM (mouse calvaria [2]): 29%; activation at 10 µM (mouse calvaria [3]): 7%
"CCOC(=O)/C=C(C)/C=C/C=C(C)/C=C/c1c(C)cc(OC)c(C)c1C [Etretinate, reference compound]",,,inhibition at 50 µM (mouse calvaria [2]): 11%; Effect on hyper-resorption / urinary excretion of tritiated tetracycline (in words) [4]: tends to increase the urinary excretion of tritiated tetracycline; % variation in urinary [3H] tetracycline excretion ([4]; oral dose 50 mg/kg): +11%; % variation in urinary [3H] tetracycline excretion ([4]; oral dose 100 mg/kg): +3%
"CCOC(=O)/C=C(C)/C=C/C=C(\C)C1=Cc2cc(C(C)(C)C)cc(C)c2OC1 [Example 36, Ethyl (2E,4E,6E)-7-(6-tert.-butyl-8-methyl-2H-chromen-3-yl)-3-methylocta-2,4,6-trienoate]",,5 µM,
"CC(C)c1ccc2c(c1)C=C(/C=C/C=C/C=C/C(=O)O)CO2 [Example 5, (2E,4E,6E)-7-(6-Isopropyl-2H-chromen-3-yl) hepta-2,4,6-trienoic acid]",30 µM,7.5 µM,
"Cc1cc(C)c2c(c1)C=C(/C=C/C=C/C=C\C(=O)O)CO2 [Example 2, (2Z,4E,6E)-7-(6,8-Dimethyl-2H-chromen-3-yl) hepta-2,4,6-trienoicacid]",,,% variation in urinary [3H] tetracycline excretion ([4]; oral dose 50 mg/kg): -10%; % variation in urinary [3H] tetracycline excretion ([4]; oral dose 100 mg/kg): -10%; % variation in urinary [3H] tetracycline excretion ([4]; oral dose 200 mg/kg): -12%
"CCOC(=O)/C=C(C)/C=C/C=C(\C)C1=Cc2cc(C(C)(C)C)ccc2OC1 [Example 33, Ethyl (2E,4E,6E)-7-(6-tert.-butyl-2H-chromen-3-yl)-3-methylocta-2,4,6-trienoate]",,,inhibition at 10 µM (mouse calvaria [2]): 3%
"Cc1cc(Cl)c2c(c1)C=C(/C=C/C=C/C=C/C(=O)O)CO2 [Example 14, (2E,4E,6E)-7-(6-Methyl-8-chloro-2H-chromen-3-yl)hepta-2,4,6-trienoic acid]",50 µM,20 µM,
"O=C(O)/C=C/C=C/C=C/C1=Cc2cc(Cl)cc(Cl)c2OC1 [Example 20, (2E,4E,6E)-7-(6,8-Dichloro-2H-chromen-3-yl) hepta-2,4,6-trienoic acid]",30 µM,8 µM,
"CCOC(=O)/C=C(C)/C=C/C=C(\C)C1=Cc2cc(C)ccc2OC1 [Example 32, Ethyl (2E,4E,6E)-7-(6-methyl-2H-chromen-3-yl)-3-methylocta-2,4,6-trienoate]",,7.5 µM,inhibition at 10 µM (mouse calvaria [2]): 14%; inhibition at 50 µM (mouse calvaria [2]): 12%
"CCOC(=O)/C=C(C)/C=C/C=C(\C)C1=Cc2cc(-c3ccccc3)ccc2OC1 [Example 25, Ethyl (2E,4E,6E)-3-methyl-7-(6-phenyl-2-H-chromen-3-yl)octa-2,4,6-trienoate]",,5 µM,inhibition at 50 µM (mouse calvaria [2]): 15%
"CC(/C=C/C=C(\C)C1=Cc2cc(C(C)(C)C)ccc2OC1)=C\C(=O)O [Example 41, (2E,4E,6E)-7-(6-Tert.-butyl-2H-chromen-3-yl)-3-methylocta-2,4,6-trienoic acid]",,4 µM,
